In data set [1] the test system is IκBα phosphorylation in HaCaT cells. Kind of data set: Phosphorylation of IκBα in TNF-α + IFN-γ-treated HaCaT cells (Western blotting). It is filed as cell-based, human. The settings on record: HaCaT cells pretreated 3 h, then TNF-α + IFN-γ (20 ng/mL) 10 min; Western blot. The source says:
(§1) The activation of NF-κB by TNF-α and/or IFN-γ results from high levels of IκB phosphorylation and the degradation of IκB in keratinocytes. NF-κB–mediated inflammation is a significant component of innate immunity and seems to be a final common pathway for the aggravation of the inflammatory response to stimuli in immune diseases of the skin [56]. To determine the potential mechanisms of the inhibition of TNF-α + IFN-γ-induced pro-inflammatory enzyme and the mediator levels by the six compounds from C. tricuspidata, their effects on the phosphorylation and degradation of cytoplasmic IκBα and on p65 translocation to the nucleus were investigated. […] In addition, compounds 13, 4, and 14 inhibited the phosphorylation of IκBα (Figure 5C,D). When HaCaT cells were exposed to TNF-α + IFN-γ, NF-κB p65 translocated from the cytoplasm to the nucleus.
(§2) Figure 5 Effects of the six compounds from C. tricuspidata on the degradation of IκB-α (A,B), the phosphorylation of IκBα (C,D), and the translocation of NF-κB p65 to the nucleus (E,F) in HaCaT cells. Cells were pretreated with the six compounds from C. tricuspidata at the indicated concentrations for 3 h and stimulated with TNF-α + IFN-γ (20 ng/mL) for 10 min. IκBα, p-IκBα, and NF-κB p65 were analyzed using Western blotting, as described in the Materials and Methods section. Representative blots from four independent experiments are presented. The immunoblots were quantified using ImageJ software. The band intensity was normalized to that of actin or anti-proliferating cell nuclear antigen (PCNA). * p < 0.05, ** p < 0.01, *** p < 0.001 compared with TNF-α + IFN-γ only.
Cells were harvested and pelleted via centrifugation at 200× g for 3 min, washed with PBS, and lysed in 20 mM Tris-HCl buffer (pH 7.4) containing a protease inhibitor mixture (0.1 mM phenylmethanesulfonyl fluoride, 5 mg/mL aprotinin, 5 mg/mL pepstatin A, and 1 mg/mL chymostatin). The protein concentration was determined using a protein assay dye reagent concentrate (#5000006; Bio-Rad Laboratories, Hercules, CA, USA). […]

Data set [2] has as its system IκBα degradation in HaCaT cells. Kind of data set: Degradation of cytoplasmic IκBα in TNF-α + IFN-γ-treated HaCaT cells (Western blotting). It is filed as cell-based, human. The settings on record: HaCaT cells pretreated 3 h, then TNF-α + IFN-γ (20 ng/mL) 10 min; Western blot.
Description: as §1, §2
(§3) Cells were harvested and pelleted via centrifugation at 200× g for 3 min, washed with PBS, and lysed in 20 mM Tris-HCl buffer (pH 7.4) containing a protease inhibitor mixture (0.1 mM phenylmethanesulfonyl fluoride, 5 mg/mL aprotinin, 5 mg/mL pepstatin A, and 1 mg/mL chymostatin). The protein concentration was determined using a protein assay dye reagent concentrate (#5000006; Bio-Rad Laboratories, Hercules, CA, USA). A total of 30 micrograms of protein from each sample was resolved using 7.5% and 12% sodium dodecyl sulfate-polyacrylamide gel electrophoresis. Thereafter, the proteins were electrophoretically transferred onto Hybond enhanced chemiluminescence (ECL) nitrocellulose membranes (Bio-Rad Laboratories). The membranes were blocked with 5% skimmed milk, and sequentially incubated with the relevant primary antibody and horseradish peroxidase-conjugated secondary antibody, prior to ECL detection (Pierce Biotechnology, Rockford, IL, USA).
(§4) HaCaT cells were homogenized in PER-Mammalian Protein Extraction Buffer (1:20, w:v) (Pierce Biotechnology, Rockford, IL, USA) containing freshly added protease inhibitor cocktail I (EMD Biosciences, San Diego, CA, USA) and 1 mM phenylmethanesulfonyl fluoride. The cytosolic fractions were prepared using centrifugation at 16,000× g for 5 min at 4 °C, while the nuclear and cytoplasmic cell extracts were prepared using NE-PER nuclear and cytoplasmic extraction reagents, respectively (Pierce Biotechnology, Rockford, IL, USA).

Data set [3] has as its system IL-6 production in TNF-α + IFN-γ-treated HaCaT cells. Kind of data set: IL-6 production in TNF-α + IFN-γ-treated HaCaT cells (ELISA). The settings on record: for IL-6 production: HaCaT cells pre-treated 3 h, then TNF-α + IFN-γ 24 h, result in words; for IC50: Homo sapiens, HaCaT cells pre-incubated with compound 3 h, then TNF-α + IFN-γ (20 ng/mL) 24 h, ELISA. It is filed as cell-based, human. An excerpt: The skin consists of two basic layers: the epidermis and dermis. The epidermis is mainly composed of keratinocytes. Pro-inflammatory cytokines are known to play an important role in the immune response in keratinocytes. Previous studies have reported the roles of TNF-α and IFN-γ in inducing NF-κB activation, which upregulates the production of IL-6 and IL-8 [25]. […] Accordingly, the effect of the 16 compounds from C. tricuspidata on IL-6 production in TNF-α + IFN-γ-treated HaCaT cells were determined. Briefly, HaCaT cells were pre-incubated with different concentrations of the 16 compounds for 3 h, and then stimulated with TNF-α + IFN-γ for 24 h.
(§5) The cytokines and chemokines in IL-6, IL-8, CCL17 (TARC), and CCL5 (RANTES) HaCaT cells were detected using an enzyme-linked immunosorbent assay. The levels of these cytokines and chemokines were measured using commercial ELISA kits (BioLegend, San Diego, CA, USA), according to the manufacturer’s instructions.
Figure S2. Effects of the 16 compounds from C. tricuspidata on IL-6 production in TNF-α+IFN-γ-treated HaCaT cells (A, B, and C). Cells were pre-treated with the indicated concentrations of the 16 compounds from C. tricuspidata for 3 h and then stimulated with TNF-α+IFN-γ (20 ng/mL) for 24 h. IL-6 levels were determined as described in the Materials and Methods section. The results are presented as the mean ± standard deviation of three experiments. *p < 0.05, **p < 0.01, and ***p < 0.001 compared with TNF-

In data set [4] the test system is NF-κB p65 translocation to the nucleus in HaCaT cells. Kind of data set: NF-κB p65 translocation to the nucleus in TNF-α + IFN-γ-treated HaCaT cells (Western blotting). It is filed as cell-based, human. The settings on record: HaCaT cells pretreated 3 h, then TNF-α + IFN-γ (20 ng/mL) 10 min; Western blot.
Description: as §1, §2, §3, §4

Data set [5] deals with IL-8 production in TNF-α + IFN-γ-treated HaCaT cells. Kind of data set: IL-8 production in TNF-α + IFN-γ-treated HaCaT cells (ELISA). It is filed as cell-based, human. The settings on record: for IL-8 production: HaCaT cells pre-treated 3 h, then TNF-α + IFN-γ 24 h, result in words; for IC50: Homo sapiens, HaCaT cells pre-incubated with compound 3 h, then TNF-α + IFN-γ (20 ng/mL) 24 h, ELISA. How it is done:
Next, the effect of the 16 compounds from C. tricuspidata on IL-8 production in HaCaT cells were determined. Briefly, HaCaT cells were pre-incubated with different concentrations of the 16 compounds for 3 h. Thereafter, the cells were subjected to TNF-α + IFN-γ stimulation for 24 h. […] Compound 2, with its flavanone skeletons, has been studied for its cyclooxygenase and tyrosinase inhibitory effects. In a previous study, compound 2 altered the anti-neuroinflammatory response in microglia. Compound 6, a prenylated flavanone, has been reported to have apoptotic effects on A375.S2 melanoma cells and to lead to the induction of apoptotic cell death in KM12, Caco-2, HT29, HCC2998, HCT116, and SW48 cell lines. […] This is the first report on the biological action of compounds 2, 6, 12, 13, 4, and 14 on the inhibitory effects of skin inflammatory factors in skin HaCaT cells. Therefore, further mechanism studies of these six compounds in HaCaT cells were conducted.
as §5
Figure S3. Effects of the 16 compounds from C. tricuspidata on IL-8 (A, B, and C) production in TNF-α+IFN-γ-treated HaCaT cells. The cells were pre-treated with the indicated concentrations of the C. tricuspidata compounds for 3 h, and then stimulated with TNF-α+IFN-γ (20 ng/mL) for 24 h. […] levels were determined as described in the Materials and Methods section. Data are expressed as the mean ± standard deviation of three experiments. *p < 0.05, **p < 0.01, and ***p < 0.001 compared with TNF- […]
(1 picture or pasted object on this page, not shown here)

The test system of the next data set is HaCaT cells. Kind of data set: Cell Counting Kit (CCK)-8 cell viability / cytotoxicity assay. The note with it: CCK-8 assay, 24 h, concentration values that did not result in cytotoxicity.

For `CC(C)=CCc1c(O)cc2c(c1O)C(=O)C[C@@H](c1ccc(O)cc1O)O2` [Compound 4, cudraflavanone B], in data set [1], the “phosphorylation of IκBα” value is given as “inhibited”. Moreover, the “degradation of IκBα in the cytoplasm” value in data set [2] is given as “inhibit”. Further, in data set [3], the IL-6 production entry is listed as “significantly decreased” and the IC50 was more than 20 µM. Moreover, the “NF-κB p65 translocation to the nucleus” value in data set [4] is “significantly inhibited”. Also, in data set [5], the IL-8 production entry is “decreased” and the IC50 amounted to 9.88 ± 3.22 µM. The Cytotoxicity in the data set with HaCaT cells was more than 20 µM.
Turning to `CC(C)=CCc1c(O)cc2oc(-c3ccc(O)cc3O)c(CC=C(C)C)c(=O)c2c1O` [Compound 6, cudraflavone C], the “degradation of IκBα in the cytoplasm” value in data set [2] is “inhibit”. Besides, in data set [3], the IL-6 production result is “significantly decreased” and the IC50 is 2.78 ± 0.75 µM. Further, the “NF-κB p65 translocation to the nucleus” value in data set [4] was “significantly inhibited”. For the same compound, in data set [5], the IL-8 production result is listed as “decreased” and the half-maximal inhibitory concentration (IC50) is 2.16 ± 0.5 µM. The Cytotoxicity in the data set on HaCaT cells is more than 5 µM.
Take `C=CC(C)(C)c1c(OC)cc2oc3cc(O)c(O)cc3c(=O)c2c1O` [Compound 13, 1,6,7-trihydroxy-2-(1,1-dimethyl-2-propenyl)-3-methoxyxanthone]: in data set [1], the “phosphorylation of IκBα” value is given as “inhibited”. In data set [2], the “degradation of IκBα in the cytoplasm” value is on record as “inhibit”. Besides, in data set [3], the IL-6 production result is on record as “significantly decreased” and the half-inhibitory concentration (IC50) is 9.69 ± 2.15 µM. Also, in data set [4], the “NF-κB p65 translocation to the nucleus” value is on record as “no significant effect”. Also, in data set [5], the IL-8 production entry is on record as “decreased” and the IC50 came out at 3.87 ± 0.96 µM. Also, the Cytotoxicity in the data set with HaCaT cells was more than 40 µM.
For `C=CC(C)(C)c1c(O)cc(O)c2c(=O)c3cc(O)c(O)cc3oc12` [Compound 14, cudratricusxanthone L], the “phosphorylation of IκBα” value in data set [1] is recorded as “inhibited”. The “degradation of IκBα in the cytoplasm” value in data set [2] was “inhibit”. Moreover, in data set [3], the IL-6 production entry is “significantly decreased” and the half-maximal inhibitory concentration (IC50) turned out to be 9.86 ± 0.92 µM. Moreover, the “NF-κB p65 translocation to the nucleus” value in data set [4] is recorded as “significantly inhibited”. In data set [5], the IL-8 production result is “decreased” and the IC50 amounted to 3.7 ± 0.7 µM. For the same compound, the Cytotoxicity with HaCaT cells is more than 20 µM.

Values taken from PMC8303187, “Anti-Inflammatory Effects of Compounds from Cudrania tricuspidata in HaCaT Human Keratinocytes” (International Journal of Molecular Sciences, 2021).
